# Values joined by “and” are separate entries in the source; they are usually repeats but may differ in a detail not shown here. Equal entries are not always repeated.
# How the values were obtained:
# Assay in all cases: Post-emergence application in field trials (Example A)
# Format in all cases: in vivo
# [1] = tested on: AMASP (Amaranthus spinosus); conditions: Table 5.5; AMASP growth stage 72; A-1 25, B-6 252 g ai/ha; 28 DAT; water 400 l/ha
# Protocol: (§1) In the examples below, using the method of S. R. Colby (1967) “Calculating synergistic and antagonistic responses of herbicide combinations”, Weeds 15, p. 22ff., the value E, which is expected if the activity of the individual active compounds is only additive, was calculated:
# (§2) [formula] • where • X=percent activity using active herbicide A at an application rate a; • Y=percent activity using active herbicide B (e.g. glufosinate) at an application rate b; • E=expected activity (in %) by A+B at application rates a+b.
# (§3) If the value found experimentally is higher than the value E calculated according to Colby, a synergistic effect is present.
# (§4) On field test sites, natural weed infestation or seeded weeds were treated post-emergence of the weeds.
# (§5) In the field trials, the weeds were treated as indicated below.
# (§6) In the following experiments, the herbicidal activity for the individual herbicidal compositions (solo and mixture applications) was assessed at the indicated days after treatment (DAT). The assessments for the damage on undesired weeds caused by the composition was carried out using a scale from 0 to 100%, compared to the untreated control plants. Here, 0 means no damage and 100 means complete destruction of the plants.
# [2] = tested on: COMDI (Commelina diffusa); conditions: Table 5.3; COMDI growth stage 76-77; A-1 25, B-6 252 g ai/ha; 28 DAT; water 300 l/ha
# Protocol: as §1, §2, §3, §4, §5, §6
# CYNDA (Cynodon dactylon) = conditions: A-1 25, B-6 252 g ai/ha, 28 DAT, water 400 l/ha
# Protocol: as §1, §2, §3, §4, §5, §6
# [3] = tested on: DIGSA (Digitaria sanguinalis); conditions: for % Herbicidal activity: growth stage 22
# Protocol: as §1, §2, §3, §4, §5, §6
# [4] = tested on: ECHCG (Echinocloa crus-galli)
# Protocol: as §1, §2, §3, §4, §5, §6
# [5] = tested on: HORVW (Hordeum vulgare (winter barley))
# Protocol: as §1, §2, §3, §4, §5, §6
# [6] = tested on: LOLMU (Lolium multiflorum); conditions: for % Herbicidal activity: B-6 252 g ai/ha, growth stage 22-25, height 20-25 cm; for % herbicidal activity: Table 6.1, LOLMU growth stage 22-25, height 20-25 cm, 200 l/ha water
# Protocol: as §1, §2, §3, §4, §5, §6
# [7] = tested on: PASSC (Paspalum scrobiculatum); conditions: Table 5.2, A-1 25, B-6 252 g ai/ha, 21 DAT, water 450 l/ha
# Protocol: as §1, §2, §3, §4, §5, §6
# [8] = tested on: SETPA (Setaria palmifolia); conditions: Table 5.3; SETPA growth stage 76-77; A-1 25, B-6 252 g ai/ha; 28 DAT; water 300 l/ha
# Protocol: as §1, §2, §3, §4, §5, §6
# [9] = tested on: SETVE (Setaria verticillata); conditions: 42 DAT; B-6 252 g ai/ha; growth stage 21-23; height 8-16 cm
# Protocol: as §1, §2, §3, §4, §5, §6
# ZEAMX (Zea mays) = tested on: ZEAMX (Zea mays)
# Protocol: as §1, §2, §3, §4, §5, §6
# [10] = 21 DAT, B-6 150 g ai/ha, growth stage 23-30, height 15-20 cm
# [11] = 21 DAT, B-6 252 g ai/ha, growth stage 23-30, height 15-20 cm
# [12] = 21 DAT, B-6 252 g ai/ha, growth stage 23-29, height 20-25 cm
# [13] = 42 DAT, B-6 252 g ai/ha, growth stage 15-16, height 27-33 cm
compound,measurement,setting,value
"CP(=O)(O)CC[C@H](N)C(=O)O.N [B-6, glufosinate-P-ammonium]",% herbicidal activity,[1],84%
same,% herbicidal activity,[2],39%
same,% herbicidal activity,"CYNDA (Cynodon dactylon); Table 5.4, CYNDA growth stage 76-77, height 15-16 cm",88%
same,% herbicidal activity,"CYNDA (Cynodon dactylon); Table 5.5, CYNDA growth stage 72",86%
same,% Herbicidal activity,"[3]; 7 DAT, B-6 252 g ai/ha, height 10-15 cm",75%
same,% herbicidal activity,"[3]; 21 DAT, B-6 252 g ai/ha, growth stage 21-22, height 10-15 cm",20%
same,% Herbicidal activity,"[3]; 21 DAT, B-6 252 g ai/ha, height 10-15 cm",80%
same,% Herbicidal activity,"[3]; 42 DAT, B-6 252 g ai/ha, height 10-15 cm",50%
same,% herbicidal activity,"[3]; Table 6.1, DIGSA growth stage 21-22, height 10-15 cm, A-1 18, B-6 252 g ai/ha, 7 DAT, 200 l/ha water",30%
same,% Herbicidal activity,"[4]; 7 DAT, B-6 252 g ai/ha, growth stage 23-30, height 15-20 cm",60%
same,% Herbicidal activity,[4]; [10],40%
same,% herbicidal activity,[4]; [10],40%
same,% Herbicidal activity,[4]; [11],70%
same,% herbicidal activity,[4]; [11],70%
same,% Herbicidal activity,"[4]; 28 DAT, B-6 252 g ai/ha, growth stage 23-30, height 15-20 cm",70% and 60%
same,% herbicidal activity,"[4]; Table 6.1, ECHCG growth stage 23-30, height 15-20 cm, A-1 12.5, B-6 150 g ai/ha, 7 DAT, 200 l/ha water",50%
same,% herbicidal activity,"[4]; Table 6.1, ECHCG growth stage 23-30, height 15-20 cm, A-1 12.5, B-6 252 g ai/ha, 7 DAT, 200 l/ha water",60%
same,% herbicidal activity,"[4]; Table 6.1, ECHCG growth stage 23-30, height 15-20 cm, A-1 18, B-6 150 g ai/ha, 7 DAT, 200 l/ha water",50%
same,% herbicidal activity,"[4]; Table 6.1, ECHCG growth stage 23-30, height 15-20 cm, A-1 18, B-6 252 g ai/ha, 7 DAT, 200 l/ha water",60%
same,% Herbicidal activity,"[5]; 7 DAT, B-6 150 g ai/ha, growth stage 23-29, height 20-25 cm",0%
same,% Herbicidal activity,"[5]; 7 DAT, B-6 252 g ai/ha, growth stage 23-29, height 20-25 cm",50% and 30%
same,% Herbicidal activity,"[5]; 21 DAT, B-6 150 g ai/ha, growth stage 23-29, height 20-25 cm",0%
same,% Herbicidal activity,[5]; [12],70%
same,% herbicidal activity,[5]; [12],30% and 40%
same,% herbicidal activity,"[5]; Table 6.1, HORVW growth stage 23-29, height 20-25 cm, A-1 12.5, B-6 150 g ai/ha, 7 DAT, 200 l/ha water",0%
same,% herbicidal activity,"[5]; Table 6.1, HORVW growth stage 23-29, height 20-25 cm, A-1 12.5, B-6 252 g ai/ha, 7 DAT, 200 l/ha water",50%
same,% herbicidal activity,"[5]; Table 6.1, HORVW growth stage 23-29, height 20-25 cm, A-1 18, B-6 150 g ai/ha, 7 DAT, 200 l/ha water",0%
same,% herbicidal activity,"[5]; Table 6.1, HORVW growth stage 23-29, height 20-25 cm, A-1 18, B-6 252 g ai/ha, 7 DAT, 200 l/ha water",40%
same,% Herbicidal activity,[6]; 7 DAT,60%
same,% Herbicidal activity,[6]; 28 DAT,40%
same,% herbicidal activity,"[6]; A-1 12.5, B-6 252 g ai/ha, 7 DAT",60%
same,% herbicidal activity,"[6]; A-1 18, B-6 252 g ai/ha, 7 DAT",60%
same,% herbicidal activity,[7],27%
same,% herbicidal activity,[8],32%
same,% Herbicidal activity,[9],60%
same,% herbicidal activity,[9],35%
same,% Herbicidal activity,"ZEAMX (Zea mays); 21 DAT, B-6 252 g ai/ha, growth stage 15-16, height 27-33 cm",65%
same,% herbicidal activity,"ZEAMX (Zea mays); 21 DAT, B-6 252 g ai/ha, growth stage 15-16, height 50-60 cm",30%
same,% Herbicidal activity,"ZEAMX (Zea mays); 28 DAT, B-6 252 g ai/ha, growth stage 15-16, height 50-60 cm",75%
same,% Herbicidal activity,ZEAMX (Zea mays); [13],45% and 50%
same,% herbicidal activity,ZEAMX (Zea mays); [13],45%
same,% herbicidal activity,"ZEAMX (Zea mays); Table 6.1, ZEAMX growth stage 15-16, height 50-60 cm, A-1 18, B-6 252 g ai/ha, 7 DAT, 200 l/ha water",65%

# Source: patent publication US12532889B2, “Herbicidal compositions comprising glufosinate” (BASF SE, priority 2023, dated 2026)
